We go through 15 compounds from PubChem BioAssay (NCI).

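96-well plates; 48 h exposure; 5 concentrations. Endpoints by linear interpolation between flanking doses. Not reached: highest tested concentration assigned. TGI: concentration producing complete growth inhibition.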 A value given as a limit tells only on which side of the number the result lay.

Test systems include A549 NSCLC; ACHN renal; BT-549 breast; EKVX NSCLC; HS 578T breast; HT29 colon; M14 melanoma; MCF7 breast; MDA-MB-231 breast; MOLT-4 leukemia; NCI-H522 lung; SK-MEL-5 melanoma; TK-10 renal; SF-539 CNS.
What all share (test): NCI-60 cell line screen, 48 h

As for `NC(N)=NS(=O)(=O)c1ccc(Nc2c3ccccc3nc3c(C(=O)NC(CO)(CO)CO)cccc23)cc1`, the TGI in the experiment with A549 NSCLC is 38.2 µM; in the experiment on ACHN renal, 40.8 µM; with BT-549 breast, 36.7 µM; in the experiment with EKVX NSCLC it was over 100 µM; with HS 578T breast, 41.2 µM; in the experiment on HT29 colon, 61.1 µM. In addition, the TGI was 68.3 µM in the experiment with M14 melanoma; 95.3 µM in the experiment with MCF7 breast; over 100 µM in the experiment with MDA-MB-231 breast; over 100 µM in the experiment on MOLT-4 leukemia; 30.9 µM with NCI-H522 lung; 57.5 µM with SK-MEL-5 melanoma. The same compound yielded a TGI in the experiment with TK-10 renal of 94.5 µM.
Consider `COC1=CC(=O)c2c(O)ccc(O)c2C1=O`, for which the TGI in the experiment with A549 NSCLC is 4.09 µM; with ACHN renal, 34.4 µM; in the experiment with BT-549 breast, 6.17 µM; in the experiment with EKVX NSCLC it was 37.8 µM; in the experiment on HS 578T breast, 19.5 µM; in the experiment on HT29 colon, 4.41 µM. In addition, the TGI came out at 1.89 µM in the experiment on M14 melanoma; 8.02 µM in the experiment on MCF7 breast; 10.1 µM in the experiment with MDA-MB-231 breast; 44.3 µM with MOLT-4 leukemia; 26 µM in the experiment with NCI-H522 lung; 10.4 µM with SF-539 CNS. Further, the TGI was found to be 2.65 µM with SK-MEL-5 melanoma and 28.3 µM in the experiment with TK-10 renal.
`CC(C)c1ccc2c(c1)C=C1OC(=O)[C@]3(C)CCC[C@@]2(C)C13` (stereo not given in full): the TGI in the experiment on A549 NSCLC, in the experiment on ACHN renal, in the experiment with BT-549 breast, in the experiment on EKVX NSCLC, with HS 578T breast and with HT29 colon was over 100 µM in each case. Besides, the TGI in the experiment with M14 melanoma, with MCF7 breast, in the experiment with MDA-MB-231 breast, in the experiment with MOLT-4 leukemia, with NCI-H522 lung and in the experiment with SF-539 CNS was over 100 µM each time. Further, the TGI in the experiment with SK-MEL-5 melanoma and in the experiment on TK-10 renal was over 100 µM each time.
Take `O=c1c2ccccc2c2c1c1c3ccccc3c(=O)c1c1c3ccccc3c(=O)c21`: the TGI in the experiment on A549 NSCLC, in the experiment on ACHN renal, with BT-549 breast, in the experiment on EKVX NSCLC, in the experiment on HS 578T breast and with HT29 colon was over 100 µM each time. The TGI with M14 melanoma, in the experiment with MCF7 breast, with MDA-MB-231 breast, in the experiment with MOLT-4 leukemia, in the experiment on NCI-H522 lung and in the experiment on SF-539 CNS was over 100 µM in each case. The TGI in the experiment on SK-MEL-5 melanoma and in the experiment on TK-10 renal was over 100 µM each time.
Turning to `CC(C)/C(Cl)=N\OC(=O)Nc1ccc(F)c([N+](=O)[O-])c1`, the TGI in the experiment on A549 NSCLC turned out to be 56 µM; with ACHN renal, 3.39 µM; in the experiment with BT-549 breast it was 27 µM; with EKVX NSCLC, 26.5 µM; in the experiment on HS 578T breast it was 25.1 µM; in the experiment with HT29 colon, 35.3 µM. In addition, the TGI in the experiment with M14 melanoma was over 32.4 µM; in the experiment on MCF7 breast, over 58.1 µM; in the experiment with MDA-MB-231 breast, 28.9 µM; with MOLT-4 leukemia, 4.94 µM; in the experiment on NCI-H522 lung it was 2.45 µM; with SF-539 CNS, 7.82 µM. Besides, the TGI with SK-MEL-5 melanoma was 22.4 µM; in the experiment on TK-10 renal, 13.5 µM.
For the compound `Cn1c(=O)c2c(ncn2CCSS(=O)(=O)O)n(C)c1=O`, the TGI with A549 NSCLC, with ACHN renal, in the experiment on BT-549 breast, in the experiment with EKVX NSCLC, in the experiment on HS 578T breast and with HT29 colon was over 100 µM each time. In addition, the TGI in the experiment on M14 melanoma, in the experiment with MCF7 breast, in the experiment with MDA-MB-231 breast, in the experiment with NCI-H522 lung, in the experiment with SF-539 CNS and in the experiment on SK-MEL-5 melanoma was over 100 µM each time. Moreover, the TGI with TK-10 renal was over 100 µM.
Take `CC(=O)N1C(C(=O)NNc2ccccc2)CSC1c1ccccc1` (stereo not given): the TGI in the experiment with A549 NSCLC, with ACHN renal, in the experiment with BT-549 breast, in the experiment on EKVX NSCLC, in the experiment on HS 578T breast and with HT29 colon was over 100 µM each time. Besides, the TGI with M14 melanoma, in the experiment on MCF7 breast, in the experiment with MDA-MB-231 breast, with MOLT-4 leukemia, in the experiment with NCI-H522 lung and in the experiment with SF-539 CNS was over 100 µM each time. Further, the TGI in the experiment with SK-MEL-5 melanoma and with TK-10 renal was over 100 µM throughout.
On to `O=C1NC(N/N=C/c2ccccc2)=N/C1=C\c1cccs1`, for which the TGI in the experiment on A549 NSCLC was over 100 µM; in the experiment with ACHN renal, 33.5 µM; with BT-549 breast it was 33.6 µM; in the experiment with EKVX NSCLC, 47.3 µM; with HS 578T breast, 9.94 µM; in the experiment with HT29 colon, over 55.3 µM. In addition, the TGI in the experiment on M14 melanoma is over 100 µM; in the experiment with MCF7 breast, 46.5 µM; in the experiment with MDA-MB-231 breast it was 38.7 µM; with MOLT-4 leukemia, over 92.3 µM; in the experiment with NCI-H522 lung it was 5.61 µM; in the experiment with SF-539 CNS it was 26.6 µM. Besides, the TGI in the experiment on SK-MEL-5 melanoma amounted to 20.7 µM; with TK-10 renal, 71.5 µM.
Consider `c1ccc2c(c1)CCN1CCc3c([nH]c4ccccc34)C21` (stereo not given), for which the TGI was over 100 µM with A549 NSCLC; over 100 µM in the experiment on ACHN renal; over 100 µM in the experiment with BT-549 breast; 82.1 µM in the experiment on EKVX NSCLC; over 100 µM in the experiment with HS 578T breast; 99.3 µM in the experiment with HT29 colon. Besides, the TGI in the experiment with M14 melanoma is 34 µM; in the experiment with MCF7 breast, over 100 µM; with MDA-MB-231 breast, over 100 µM; with MOLT-4 leukemia it was 70.6 µM; in the experiment on NCI-H522 lung, 66 µM; with SF-539 CNS, over 100 µM. Moreover, the results for the TGI in the experiment with SK-MEL-5 melanoma and in the experiment with TK-10 renal were 29.7 µM and over 100 µM, respectively.
As for `COc1ccc(C(=O)Cn2c(C(C)=O)nc3ccccc32)cc1`, the TGI in the experiment with A549 NSCLC, in the experiment with ACHN renal, in the experiment on BT-549 breast, in the experiment with EKVX NSCLC, in the experiment with HS 578T breast and in the experiment with HT29 colon was over 100 µM in each case. Moreover, the TGI with M14 melanoma, in the experiment on MCF7 breast, in the experiment with MDA-MB-231 breast, in the experiment with MOLT-4 leukemia, in the experiment on NCI-H522 lung and with SF-539 CNS was over 100 µM in each case. In addition, the TGI in the experiment with SK-MEL-5 melanoma and in the experiment on TK-10 renal was over 100 µM each time.
Regarding `O=C(O)CSc1nnc(CCCCCCCCc2nnc(SCC(=O)O)o2)o1`, the TGI in the experiment with A549 NSCLC, in the experiment with ACHN renal, with BT-549 breast, in the experiment on EKVX NSCLC, in the experiment on HS 578T breast and with HT29 colon was over 100 µM throughout. The TGI with M14 melanoma, in the experiment on MCF7 breast, with MDA-MB-231 breast, in the experiment on MOLT-4 leukemia, in the experiment on NCI-H522 lung and in the experiment on SK-MEL-5 melanoma was over 100 µM each time. Besides, the TGI in the experiment on TK-10 renal is over 100 µM.
As to `CC(C)CCNC(=O)c1ccc(CNC(=O)/C=C/c2csc(-c3ccccc3)n2)cc1`, the TGI with A549 NSCLC, in the experiment on ACHN renal, in the experiment with BT-549 breast, with EKVX NSCLC, with HS 578T breast and in the experiment on HT29 colon was over 100 µM each time. For the same compound, the TGI in the experiment with M14 melanoma, with MCF7 breast, in the experiment on MDA-MB-231 breast, in the experiment with MOLT-4 leukemia, with NCI-H522 lung and in the experiment on SF-539 CNS was over 100 µM in each case. The TGI in the experiment on SK-MEL-5 melanoma and in the experiment on TK-10 renal was over 100 µM throughout.
`O=NNc1cnccn1`: the TGI with A549 NSCLC, in the experiment with ACHN renal, in the experiment with BT-549 breast, in the experiment with EKVX NSCLC, in the experiment with HS 578T breast and in the experiment on HT29 colon was over 1250 µM each time. Also, the TGI with M14 melanoma is over 1250 µM; in the experiment on MCF7 breast it was 1240 µM; with MDA-MB-231 breast it was over 1250 µM; with MOLT-4 leukemia it was 876 µM; with NCI-H522 lung it was over 1250 µM; in the experiment with SF-539 CNS, over 1250 µM. Further, the TGI in the experiment on SK-MEL-5 melanoma and with TK-10 renal was over 1250 µM each time.
Regarding `Cc1nc(N)c(N2CCN(Cc3ccccc3)CC2)c(=O)[nH]1`, the TGI in the experiment on A549 NSCLC, in the experiment with ACHN renal, in the experiment with BT-549 breast, in the experiment on EKVX NSCLC, in the experiment on HS 578T breast and with HT29 colon was over 100 µM each time. The TGI in the experiment on M14 melanoma, in the experiment on MCF7 breast, in the experiment on MDA-MB-231 breast, in the experiment on MOLT-4 leukemia, in the experiment on NCI-H522 lung and in the experiment on SF-539 CNS was over 100 µM throughout. The same compound gave a TGI in the experiment on TK-10 renal of over 100 µM.
`Clc1ccc2c(c1)CC1C[N+]3=C(CCCC3)C1=C2` (stereo not given): the TGI in the experiment on A549 NSCLC, in the experiment with ACHN renal, in the experiment with BT-549 breast, with EKVX NSCLC, with HS 578T breast and with HT29 colon was over 100 µM in each case. Also, the TGI in the experiment with M14 melanoma, in the experiment with MCF7 breast, in the experiment on MDA-MB-231 breast, in the experiment with MOLT-4 leukemia, with NCI-H522 lung and in the experiment on SK-MEL-5 melanoma was over 100 µM throughout. This compound also returned a TGI with TK-10 renal of over 100 µM.
